Laboratory results from patent US20180000744A1, “NANOENCAPSULATED COMPOSITIONS” (Georgia Southern Research and Service Foundation, Inc., priority 2016, published 2018).

System: Human prostatic cancer cell PC3
Test: In vitro cytotoxicity / biocompatibility test, MTS assay
Type: cell-based
Details: 5 μM initial drug concentration in the media, 48 hours
Experimental: Human prostatic cancer cell PC3 were used to test the biocompatibility and cytotoxicity of FU loaded PCL nanofibers. Human prostatic cancer cell derived from metastatic site (bone) was purchased from ATCC, USA. 57 ml of fetal bovine serum (USA origin purchased from Sigma Aldrich), 7 ml of Penicillin-Streptomycin (Life Technologies) and 6 ml of HEPES (Life Technologies) was added to 500 ml RPMI-1640 medium (Fisher Scientific). This media is called R+ media. 96 well plate were used to grow PC3 cells (sterile and flat bottom type purchased from fisher scientific). 100 μL of PC3 cells at 8×10^4 cells/ml were added on each wells of 96 well plate for all tests. PC3 cells were incubated at 37° C. in a humidified 5% CO2 atmosphere for 24 hours before performing any test. […]
The cytotoxicity of NFs set A and D was assessed. […]
96 well plates were incubated at 37° C. in a humidified, 5% CO2 atmosphere for 48 hours to give sufficient time for the fluorouracil to inhibit essential biosynthetic process of the PC3 cells and thus cause cell death. […] Well plates were kept again in CO2 incubator for 3 hours and then their absorbance were measured at 490 nm using UV-Vis spectrometer. Absorbance of cells with different concentration of drug was compared with the absorbance of PC3 cells with no drug to determine the cell viability. […]

## O=c1[nH]cc(F)c(=O)[nH]1 [pristine FU, 5-Fluorouracil]
  alive cells: 43%
